# Measurements from paper PMC11723358, “Nelumbo nucifera Petals Ameliorate Depressive-like Symptom and Cognitive Deficit in Unpredictable Chronic Mild Stress Mouse Model” (Nutrients, 2024).
# Legend:
# Assay in all cases: fluorescence, kynuramine to 4-hydroxyquinoline
# Assay type in all cases: biochemical
# MAO-B [1] = target: T1, MAO-B (Homo sapiens, UniProt P27338)
# T1 construct: gene MAOB; human recombinant enzyme
# T1 sequence (P27338 2-520): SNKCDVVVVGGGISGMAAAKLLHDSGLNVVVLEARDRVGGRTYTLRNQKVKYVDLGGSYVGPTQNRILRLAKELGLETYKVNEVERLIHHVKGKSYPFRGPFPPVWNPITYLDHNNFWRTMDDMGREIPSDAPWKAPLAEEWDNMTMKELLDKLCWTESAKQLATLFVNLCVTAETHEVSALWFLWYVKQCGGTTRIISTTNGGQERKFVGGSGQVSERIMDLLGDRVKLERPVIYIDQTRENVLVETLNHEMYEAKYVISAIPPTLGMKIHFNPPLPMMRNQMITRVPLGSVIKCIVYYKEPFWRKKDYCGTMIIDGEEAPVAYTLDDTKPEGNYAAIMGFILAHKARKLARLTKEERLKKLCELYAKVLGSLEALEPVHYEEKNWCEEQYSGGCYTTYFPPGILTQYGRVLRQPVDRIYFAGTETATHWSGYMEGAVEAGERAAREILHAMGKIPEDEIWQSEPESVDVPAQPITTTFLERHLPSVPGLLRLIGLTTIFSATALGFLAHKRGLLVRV
# MAO-A = target: T2, MAO-A (Homo sapiens, UniProt P21397)
# T2 construct: gene MAOA; human recombinant enzyme
# T2 sequence (P21397 1-527): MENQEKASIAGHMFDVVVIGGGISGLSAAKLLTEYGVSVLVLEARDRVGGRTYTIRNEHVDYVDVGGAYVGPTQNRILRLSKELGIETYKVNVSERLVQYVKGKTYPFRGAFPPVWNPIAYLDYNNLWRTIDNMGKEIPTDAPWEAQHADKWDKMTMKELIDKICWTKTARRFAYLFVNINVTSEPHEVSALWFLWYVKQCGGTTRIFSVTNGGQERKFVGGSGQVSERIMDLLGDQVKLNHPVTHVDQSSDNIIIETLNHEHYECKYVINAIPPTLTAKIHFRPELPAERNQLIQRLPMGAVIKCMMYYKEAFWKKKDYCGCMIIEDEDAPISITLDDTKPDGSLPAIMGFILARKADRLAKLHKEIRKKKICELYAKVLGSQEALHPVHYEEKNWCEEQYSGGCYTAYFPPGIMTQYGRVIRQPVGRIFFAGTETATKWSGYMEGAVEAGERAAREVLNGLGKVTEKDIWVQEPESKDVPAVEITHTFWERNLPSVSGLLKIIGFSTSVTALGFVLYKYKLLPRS
# MAO-B [2] = target: T1, MAO-B; conditions: read-out: % inhibition at 1000 μM
# From the text: fluorescence, kynuramine to 4-hydroxyquinoline on MAO-B
IC50 (MAO-B [1]) [µM],IC50 (MAO-A) [µM],inhibition at 1000 µM (MAO-B [2]) [%],SMILES
242.2 ± 0.78,108.9 ± 0.21,,"C[C@@H]1O[C@@H](O[C@H]2[C@H](Oc3c(-c4ccc(O)cc4)oc4cc(O)cc(O)c4c3=O)O[C@H](CO)[C@@H](O)[C@@H]2O)[C@H](O)[C@H](O)[C@H]1O [compound 3, kaempferol-3-neohesperidoside]"
860.7 ± 3.7,578.4 ± 2.01,,"O=c1c(O[C@@H]2O[C@H](CO)[C@H](O)[C@H](O)[C@H]2O)c(-c2ccc(O)cc2)oc2cc(O)cc(O)c12 [compound 2, trifolin]"
,584 ± 11.8,43.5 ± 5.2,"OCCc1ccc(O[C@@H]2O[C@H](CO)[C@@H](O)[C@H](O)[C@H]2O)cc1 [compound 4, icariside D2]"
,2.8 ± 0.13,20.7 ± 1.8,"CC[C@H](CC[C@@H](C)[C@H]1CC[C@H]2[C@@H]3CC=C4C[C@@H](O)CC[C@]4(C)[C@H]3CC[C@]12C)C(C)C [compound 5, β-sitosterol]"
